From the supplement of paper PMC11061612

What was measured:
Assay in all cases: combination Emax (second highest fraction inhibited in the dose matrix, 72 h); higher = more inhibition; extreme values may be limits of the assay
[1] = system: OVKATE (Ovarian Carcinoma)
How it was run: (§1)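 Cell lines grown in DMEM/F12 or RPMI with 10% FBS were plated in 1536-well plates and held 24 hours at 37°C, 5% CO2 before 72 hours of exposure to two-drug dose matrices, with DMSO typically at 0.2%. CellTiter-Glo 2.0 luminescence gave viability, which was converted to inhibition. Vehicle wells were set to 0 and blank wells to 1. Combination Emax is the second-highest inhibition in the matrix, and Bliss excess is the observed combination effect minus the expected EA + EB − EA·EB, where EA and EB are the single-agent effects.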

[2] = system: SCC90 (Head and Neck Carcinoma)
How it was run: as §1

[3] = system: TK (B-Cell Non-Hodgkin's Lymphoma)
How it was run: as §1

[4] = system: NCI-H1944 (Lung Adenocarcinoma)
How it was run: as §1

[5] = system: NCI-H835 (Other Solid Carcinomas)
How it was run: as §1

[6] = system: NCI-H2023 (Non-Small Cell Lung Carcinoma)
How it was run: as §1

[7] = system: JJN-3 (Plasma Cell Myeloma)
How it was run: as §1

[8] = system: JURL-MK1 (Chronic Myelogenous Leukemia)
How it was run: as §1

[9] = system: NTERA-2-cl-D1 (Other Solid Carcinomas)
How it was run: as §1

[10] = system: KNS-62 (Squamous Cell Lung Carcinoma)
How it was run: as §1

[11] = system: Daudi (Burkitt's Lymphoma)
How it was run: as §1

[12] = system: TOV-21G (Ovarian Carcinoma)
How it was run: as §1

NCI-H2452 (Mesothelioma) = system: NCI-H2452 (Mesothelioma)
How it was run: as §1

SK-MEL-24 (Melanoma) = system: SK-MEL-24 (Melanoma)
How it was run: as §1

[13] = system: L-363 (Plasma Cell Myeloma)
How it was run: as §1

[14] = system: CAL-85-1 (Breast Carcinoma)
How it was run: as §1

SK-N-DZ (Neuroblastoma) = system: SK-N-DZ (Neuroblastoma)
How it was run: as §1

DK-MG (Glioblastoma) = system: DK-MG (Glioblastoma)
How it was run: as §1

[15] = system: IGROV-1 (Ovarian Carcinoma)
How it was run: as §1

[16] = system: RS4-11 (B-Lymphoblastic Leukemia)
How it was run: as §1

SMILES	combination Emax [1]	combination Emax [2]	combination Emax [3]	combination Emax [4]	combination Emax [5]	combination Emax [6]	combination Emax [7]	combination Emax [8]	combination Emax [9]	combination Emax [10]	combination Emax [11]	combination Emax [12]	combination Emax (NCI-H2452 (Mesothelioma))	combination Emax (SK-MEL-24 (Melanoma))	combination Emax [13]	combination Emax [14]	combination Emax (SK-N-DZ (Neuroblastoma))	combination Emax (DK-MG (Glioblastoma))	combination Emax [15]	combination Emax [16]
COc1nnc2ccc(N3CCC(c4ccc(OCCN5CCN(C)C(=O)[C@H]5C)cc4)CC3)nn12 [AZD5153] + Cn1cnc2c(F)c(Nc3ccc(Br)cc3Cl)c(C(=O)NOCCO)cc21 [Selumetinib] (first compound max 1 µM, 7x7, partner max 10 µM)	0.26	0.916	0.232	0.717	0.446	0.316	0.955	1	0.712	0.647	0.527	0.775	0.446	0.857	0.709	0.687	0.703	0.652	0.736	0.593
COc1nnc2ccc(N3CCC(c4ccc(OCCN5CCN(C)C(=O)[C@H]5C)cc4)CC3)nn12 [AZD5153] + C=CCn1c(=O)c2cnc(Nc3ccc(N4CCN(C)CC4)cc3)nc2n1-c1cccc(C(C)(C)O)n1 [AZD1775] (first compound max 1 µM, partner max 1 µM)	0.344	0.714	0.97	0.84	0.582	0.501	0.873	0.998	0.672	0.542	0.753	0.891	0.605	0.604	0.935	0.598	0.987	0.689	0.838	0.979
CS(=O)(=O)CCNCc1ccc(-c2ccc3ncnc(Nc4ccc(OCc5cccc(F)c5)c(Cl)c4)c3c2)o1 [Lapatinib] + C[C@@H](Oc1cc(-c2cnn(C3CCNCC3)c2)cnc1N)c1c(Cl)ccc(F)c1Cl [Crizotinib] (first compound max 10 µM, 7x7, partner max 10 µM)	0.391	0.946	0.701	0.958	0.459	0.687	0.902	1	0.957	0.856	0.945	0.953	0.804	0.967	0.932	0.944	0.899	0.925	1	0.883
COc1nnc2ccc(N3CCC(c4ccc(OCCN5CCN(C)C(=O)[C@H]5C)cc4)CC3)nn12 [AZD5153] + C[C@@H]1COCCN1C2=NC(=NC(=C2)C3(CC3)[S@](=N)(=O)C)C4=C5C=CNC5=NC=C4 [AZD6738] (first compound max 1 µM, 7x7, partner max 10 µM)	0.324	0.416	0.968	0.88	0.727	0.7	0.964	0.998	0.832	0.625	0.843	0.891	0.574	0.636	0.849	0.734	0.979	0.624	0.843	0.944
COc1cccc(OCCCN)c1-c1cc(Nc2cnc(C#N)cn2)n[nH]1 [Prexasertib] + C=CCn1c(=O)c2cnc(Nc3ccc(N4CCN(C)CC4)cc3)nc2n1-c1cccc(C(C)(C)O)n1 [AZD1775] (first compound max 1 µM, partner max 1 µM)	0.371	0.94	0.882	0.815	0.684	0.853	0.985	1	0.916	0.684	0.968	0.618	0.832	0.703	1	0.716	1	0.387	0.788	1
CC(=O)c1c(C)c2cnc(Nc3ccc(N4CCNCC4)cn3)nc2n(C2CCCC2)c1=O [Palbociclib] + CC1(C)CCC(CN2CCN(c3ccc(C(=O)NS(=O)(=O)c4ccc(NCC5CCOCC5)c([N+](=O)[O-])c4)c(Oc4cnc5[nH]ccc5c4)c3)CC2)=C(c2ccc(Cl)cc2)C1 [Venetoclax] (first compound max 10 µM, 7x7, partner max 1 µM)	0.12	0.155	0.975	0.523	0.255	0.348	0.261	0.661	0.134	0.268	0.442	0.519	0.282	0.182	0.208	0.0543	0.516	0.286	0.537	1
CCc1c2c(nc3ccc(O)cc13)-c1cc3c(c(=O)n1C2)COC(=O)[C@]3(O)CC [SN-38] + CN(C)CCCOc1ccc(-c2ccc3ncc4c(c3c2)n(C2CCOCC2)c(=O)n4C)cn1 [AZD0156] (first compound max 0.3 µM, 7x7, partner max 1 µM)	0.224	0.423	0.991	0.686	0.242	0.834	0.626	1	0.958	0.872	0.95	0.574	0.33	0.825	0.559	0.639	0.901	0.241	0.691	0.984
Cn1cnc2c(F)c(Nc3ccc(Br)cc3Cl)c(C(=O)NOCCO)cc21 [Selumetinib] + C=CCn1c(=O)c2cnc(Nc3ccc(N4CCN(C)CC4)cc3)nc2n1-c1cccc(C(C)(C)O)n1 [AZD1775] (first compound max 10 µM, partner max 1 µM)	0.173	0.825	0.93	0.706	0.512	0.281	0.67	1	0.271	0.434	0.662	0.702	0.547	0.68	0.924	0.474	0.971	0.408	0.848	0.979
COc1nnc2ccc(N3CCC(c4ccc(OCCN5CCN(C)C(=O)[C@H]5C)cc4)CC3)nn12 [AZD5153] + Cc1c2c(nn1C)CSCc1cc(n(C)n1)CSc1cc(c3ccccc3c1)OCCCc1c(C(=O)O)n(C)c3c-2c(Cl)ccc13 [AZD5991] (first compound max 1 µM, 7x7, partner max 1 µM)	0.333	0.9	0.677	0.594	0.599	0.47	1	0.927	0.97	0.503	0.916	0.744	0.53	0.772	0.994	0.779	0.751	0.633	0.889	0.937
COc1nnc2ccc(N3CCC(c4ccc(OCCN5CCN(C)C(=O)[C@H]5C)cc4)CC3)nn12 [AZD5153] + CCN(CCO)CCCOc1ccc2c(Nc3cc(CC(=O)Nc4cccc(F)c4)[nH]n3)ncnc2c1 [AZD2811] (first compound max 1 µM, 7x7, partner max 1 µM)	0.263	0.452	0.371	0.711	0.384	0.422	0.876	0.898	0.68	0.596	0.677	0.749	0.433	0.528	0.589	0.657	0.8	0.614	0.618	0.977
CN(C)CCCOc1ccc(-c2ccc3ncc4c(c3c2)n(C2CCOCC2)c(=O)n4C)cn1 [AZD0156] + O=C(c1cc(Cc2n[nH]c(=O)c3ccccc23)ccc1F)N1CCN(C(=O)C2CC2)CC1 [Olaparib] (first compound max 3 µM, partner max 3 µM)	0.214	0.138	0.18	0.49	0.224	0.369	0.213	0.431	0.162	0.367	0.48	0.282	0.38	0.227	0.356	0.172	0.373	0.41	0.574	0.497
COc1cccc(OCCCN)c1-c1cc(Nc2cnc(C#N)cn2)n[nH]1 [Prexasertib] + CN(C)CCCOc1ccc(-c2ccc3ncc4c(c3c2)n(C2CCOCC2)c(=O)n4C)cn1 [AZD0156] (first compound max 1 µM, 7x7, partner max 1 µM)	0.275	0.737	0.918	0.785	0.366	0.806	0.976	1	0.227	0.659	0.965	0.621	0.644	0.624	0.992	0.315	1	0.32	0.788	1
Cn1cnc2c(F)c(Nc3ccc(Br)cc3Cl)c(C(=O)NOCCO)cc21 [Selumetinib] + CCN(CCO)CCCOc1ccc2c(Nc3cc(CC(=O)Nc4cccc(F)c4)[nH]n3)ncnc2c1 [AZD2811] (first compound max 10 µM, 7x7, partner max 1 µM)	0.176	0.827	0.262	0.381	0.177	0.275	0.551	0.994	0.382	0.495	0.387	0.48	0.249	0.558	0.116	0.483	0.621	0.38	0.665	0.937
